Targets include Histamine H1 receptor (Rattus norvegicus, UniProt P31390); D(1B) dopamine receptor (Homo sapiens, UniProt P21918); D(1A) dopamine receptor (Homo sapiens, UniProt P21728).
The target of experiment [1] is T1, Alpha-1B adrenergic receptor (Homo sapiens, UniProt P35368).
T1 sequence (P35368 whole entry): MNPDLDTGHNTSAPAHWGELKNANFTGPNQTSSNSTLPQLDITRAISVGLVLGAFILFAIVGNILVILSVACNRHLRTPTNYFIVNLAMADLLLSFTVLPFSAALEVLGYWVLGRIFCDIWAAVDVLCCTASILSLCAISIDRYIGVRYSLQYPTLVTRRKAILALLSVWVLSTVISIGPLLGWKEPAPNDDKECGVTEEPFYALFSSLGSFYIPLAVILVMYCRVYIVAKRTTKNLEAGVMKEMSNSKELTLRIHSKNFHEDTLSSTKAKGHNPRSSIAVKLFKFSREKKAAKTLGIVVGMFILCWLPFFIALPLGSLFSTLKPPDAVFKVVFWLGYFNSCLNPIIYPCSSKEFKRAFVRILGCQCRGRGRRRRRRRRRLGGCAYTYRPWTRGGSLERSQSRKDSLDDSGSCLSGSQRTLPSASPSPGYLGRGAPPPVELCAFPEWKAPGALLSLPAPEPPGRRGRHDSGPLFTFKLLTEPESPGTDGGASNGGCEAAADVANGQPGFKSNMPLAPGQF

The target in experiment [2] is 5-hydroxytryptamine receptor 7 (Homo sapiens, UniProt P34969).
Experiment [3] has as its target T2, Alpha-2B adrenergic receptor (Homo sapiens, UniProt P18089).
T2 sequence (P18089 whole entry): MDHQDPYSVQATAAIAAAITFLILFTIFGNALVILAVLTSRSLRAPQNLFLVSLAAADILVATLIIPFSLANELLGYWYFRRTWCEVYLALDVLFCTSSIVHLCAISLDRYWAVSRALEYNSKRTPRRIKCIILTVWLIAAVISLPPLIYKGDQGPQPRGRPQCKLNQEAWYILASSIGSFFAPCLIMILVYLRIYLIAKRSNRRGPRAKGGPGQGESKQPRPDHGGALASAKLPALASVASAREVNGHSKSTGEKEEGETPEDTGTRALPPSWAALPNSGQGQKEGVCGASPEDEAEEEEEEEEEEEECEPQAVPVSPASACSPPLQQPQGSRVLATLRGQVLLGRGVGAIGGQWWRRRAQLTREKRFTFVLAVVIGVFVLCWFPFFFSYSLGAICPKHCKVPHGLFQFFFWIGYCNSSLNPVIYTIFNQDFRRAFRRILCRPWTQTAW

Experiment [4] addresses 5-hydroxytryptamine receptor 6 (Homo sapiens, UniProt P50406).
Experiment [5] has as its target 5-hydroxytryptamine receptor 5A (Homo sapiens, UniProt P47898).
Experiment [6] has as its target T3, Muscarinic acetylcholine receptor M4 (Homo sapiens, UniProt P08173).
T3 sequence (P08173 whole entry): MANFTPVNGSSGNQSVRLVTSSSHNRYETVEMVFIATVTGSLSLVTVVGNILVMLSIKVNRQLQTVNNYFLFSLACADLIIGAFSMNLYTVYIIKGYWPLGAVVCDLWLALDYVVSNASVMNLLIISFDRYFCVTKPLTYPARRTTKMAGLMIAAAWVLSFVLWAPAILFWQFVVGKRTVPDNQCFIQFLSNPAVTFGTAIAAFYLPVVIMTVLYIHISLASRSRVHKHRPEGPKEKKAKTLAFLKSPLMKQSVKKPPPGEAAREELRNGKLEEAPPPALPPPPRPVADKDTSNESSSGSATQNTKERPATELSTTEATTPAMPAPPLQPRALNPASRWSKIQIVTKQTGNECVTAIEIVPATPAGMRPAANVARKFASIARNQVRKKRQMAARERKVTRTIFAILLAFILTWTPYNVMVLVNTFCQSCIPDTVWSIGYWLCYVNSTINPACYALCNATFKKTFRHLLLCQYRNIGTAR

Experiment [7] concerns the target T4, 5-hydroxytryptamine receptor 3A (Homo sapiens, UniProt P46098).
T4 sequence (P46098 whole entry): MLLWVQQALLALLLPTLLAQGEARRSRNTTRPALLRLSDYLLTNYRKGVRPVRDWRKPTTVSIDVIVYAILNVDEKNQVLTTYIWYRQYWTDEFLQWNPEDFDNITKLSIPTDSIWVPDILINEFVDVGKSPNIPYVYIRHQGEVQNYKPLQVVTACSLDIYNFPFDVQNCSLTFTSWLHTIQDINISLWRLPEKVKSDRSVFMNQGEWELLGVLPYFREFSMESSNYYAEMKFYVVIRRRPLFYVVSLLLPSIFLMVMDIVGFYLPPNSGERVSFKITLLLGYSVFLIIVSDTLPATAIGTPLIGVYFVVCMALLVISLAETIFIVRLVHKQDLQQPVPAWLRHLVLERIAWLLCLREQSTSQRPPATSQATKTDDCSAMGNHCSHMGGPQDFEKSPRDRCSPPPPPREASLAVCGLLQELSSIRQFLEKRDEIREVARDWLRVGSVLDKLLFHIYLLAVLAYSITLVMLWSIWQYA

Experiment [8] concerns the target Muscarinic acetylcholine receptor M3 (Homo sapiens, UniProt P20309).
In experiment [9] the target is Kappa-type opioid receptor (Homo sapiens, UniProt P41145).
Sequence of Kappa-type opioid receptor (P41145 whole entry): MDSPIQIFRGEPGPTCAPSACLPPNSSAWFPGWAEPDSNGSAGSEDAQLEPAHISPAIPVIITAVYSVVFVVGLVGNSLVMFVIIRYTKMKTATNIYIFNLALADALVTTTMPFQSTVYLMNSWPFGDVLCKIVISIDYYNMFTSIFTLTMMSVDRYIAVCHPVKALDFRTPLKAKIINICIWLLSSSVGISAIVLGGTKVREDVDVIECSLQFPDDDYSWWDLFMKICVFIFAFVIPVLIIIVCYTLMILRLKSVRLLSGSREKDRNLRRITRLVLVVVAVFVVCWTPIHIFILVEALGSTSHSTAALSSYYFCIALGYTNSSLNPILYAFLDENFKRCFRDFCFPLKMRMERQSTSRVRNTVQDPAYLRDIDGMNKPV

Sequence of 5-hydroxytryptamine receptor 6 (P50406 whole entry): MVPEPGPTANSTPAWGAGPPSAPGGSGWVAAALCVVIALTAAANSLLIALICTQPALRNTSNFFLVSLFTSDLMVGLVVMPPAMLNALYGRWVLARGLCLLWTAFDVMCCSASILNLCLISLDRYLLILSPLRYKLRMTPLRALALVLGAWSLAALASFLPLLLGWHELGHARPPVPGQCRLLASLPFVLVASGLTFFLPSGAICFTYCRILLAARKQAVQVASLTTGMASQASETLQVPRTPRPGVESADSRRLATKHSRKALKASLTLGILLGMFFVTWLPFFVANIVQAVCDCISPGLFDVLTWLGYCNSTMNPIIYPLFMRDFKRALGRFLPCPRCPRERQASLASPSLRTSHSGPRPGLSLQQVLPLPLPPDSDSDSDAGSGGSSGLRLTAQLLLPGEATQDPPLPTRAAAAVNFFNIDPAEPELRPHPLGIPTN
Sequence of 5-hydroxytryptamine receptor 5A (P47898 whole entry): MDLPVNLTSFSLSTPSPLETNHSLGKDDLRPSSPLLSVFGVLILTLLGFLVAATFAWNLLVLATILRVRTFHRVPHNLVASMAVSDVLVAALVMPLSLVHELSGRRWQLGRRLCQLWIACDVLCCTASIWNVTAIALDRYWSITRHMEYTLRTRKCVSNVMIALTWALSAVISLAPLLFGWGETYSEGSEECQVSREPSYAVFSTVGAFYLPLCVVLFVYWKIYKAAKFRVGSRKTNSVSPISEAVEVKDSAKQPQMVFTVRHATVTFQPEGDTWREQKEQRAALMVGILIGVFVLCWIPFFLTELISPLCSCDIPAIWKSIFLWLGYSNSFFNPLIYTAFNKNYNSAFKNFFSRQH
Sequence of Muscarinic acetylcholine receptor M3 (P20309 whole entry): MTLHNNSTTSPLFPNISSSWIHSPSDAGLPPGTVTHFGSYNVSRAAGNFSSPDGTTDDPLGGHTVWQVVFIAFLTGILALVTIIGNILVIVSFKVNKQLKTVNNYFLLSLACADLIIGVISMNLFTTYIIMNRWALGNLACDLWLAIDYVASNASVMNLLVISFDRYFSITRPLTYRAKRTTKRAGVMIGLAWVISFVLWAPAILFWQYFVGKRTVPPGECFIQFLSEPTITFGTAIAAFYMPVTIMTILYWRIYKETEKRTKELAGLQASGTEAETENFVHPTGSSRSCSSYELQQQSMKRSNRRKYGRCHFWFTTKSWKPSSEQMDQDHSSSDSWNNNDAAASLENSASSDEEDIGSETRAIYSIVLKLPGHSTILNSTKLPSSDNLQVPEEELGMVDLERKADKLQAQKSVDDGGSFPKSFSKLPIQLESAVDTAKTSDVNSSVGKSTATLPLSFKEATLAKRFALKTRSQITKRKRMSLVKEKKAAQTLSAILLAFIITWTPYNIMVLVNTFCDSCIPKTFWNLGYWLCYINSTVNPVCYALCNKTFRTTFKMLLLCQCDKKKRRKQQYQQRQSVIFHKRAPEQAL
Sequence of 5-hydroxytryptamine receptor 7 (P34969 whole entry): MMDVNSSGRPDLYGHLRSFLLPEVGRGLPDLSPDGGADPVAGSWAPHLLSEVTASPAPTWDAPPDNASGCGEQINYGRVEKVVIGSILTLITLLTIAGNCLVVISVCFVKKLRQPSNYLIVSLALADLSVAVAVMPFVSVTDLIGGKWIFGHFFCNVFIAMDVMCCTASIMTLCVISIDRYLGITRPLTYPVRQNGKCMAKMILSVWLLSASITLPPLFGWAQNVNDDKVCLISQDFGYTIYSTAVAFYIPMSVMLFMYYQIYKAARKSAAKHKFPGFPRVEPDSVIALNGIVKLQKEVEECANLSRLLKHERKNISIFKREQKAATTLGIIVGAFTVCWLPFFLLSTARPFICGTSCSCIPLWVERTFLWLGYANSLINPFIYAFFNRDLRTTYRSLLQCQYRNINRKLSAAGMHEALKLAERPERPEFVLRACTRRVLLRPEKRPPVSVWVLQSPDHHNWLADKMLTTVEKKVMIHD
Sequence of D(1A) dopamine receptor (P21728 whole entry): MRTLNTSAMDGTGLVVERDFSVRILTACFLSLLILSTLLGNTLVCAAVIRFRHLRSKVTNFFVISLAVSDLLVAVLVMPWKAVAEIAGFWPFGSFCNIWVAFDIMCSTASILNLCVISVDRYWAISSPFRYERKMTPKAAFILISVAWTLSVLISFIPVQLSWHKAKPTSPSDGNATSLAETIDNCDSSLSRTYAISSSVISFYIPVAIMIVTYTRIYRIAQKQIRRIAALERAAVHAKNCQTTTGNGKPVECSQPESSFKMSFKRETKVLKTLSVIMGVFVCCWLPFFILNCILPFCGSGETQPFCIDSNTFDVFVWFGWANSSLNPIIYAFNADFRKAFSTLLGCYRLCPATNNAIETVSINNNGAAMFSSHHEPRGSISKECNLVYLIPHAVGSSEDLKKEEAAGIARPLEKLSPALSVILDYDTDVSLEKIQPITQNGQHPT
Sequence of Histamine H1 receptor (P31390 whole entry): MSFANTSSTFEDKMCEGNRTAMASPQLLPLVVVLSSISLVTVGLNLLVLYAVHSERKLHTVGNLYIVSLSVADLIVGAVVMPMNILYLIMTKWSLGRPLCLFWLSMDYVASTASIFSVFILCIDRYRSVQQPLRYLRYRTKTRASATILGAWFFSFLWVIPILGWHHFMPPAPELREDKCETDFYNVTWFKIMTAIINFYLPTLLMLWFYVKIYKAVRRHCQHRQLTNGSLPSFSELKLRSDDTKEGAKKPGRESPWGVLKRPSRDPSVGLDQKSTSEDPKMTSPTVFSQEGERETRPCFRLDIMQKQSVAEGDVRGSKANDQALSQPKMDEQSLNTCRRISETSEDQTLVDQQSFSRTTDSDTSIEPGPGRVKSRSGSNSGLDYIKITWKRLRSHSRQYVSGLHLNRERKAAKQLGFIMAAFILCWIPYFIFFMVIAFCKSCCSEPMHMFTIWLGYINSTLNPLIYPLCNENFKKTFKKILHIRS
Sequence of D(1B) dopamine receptor (P21918 whole entry): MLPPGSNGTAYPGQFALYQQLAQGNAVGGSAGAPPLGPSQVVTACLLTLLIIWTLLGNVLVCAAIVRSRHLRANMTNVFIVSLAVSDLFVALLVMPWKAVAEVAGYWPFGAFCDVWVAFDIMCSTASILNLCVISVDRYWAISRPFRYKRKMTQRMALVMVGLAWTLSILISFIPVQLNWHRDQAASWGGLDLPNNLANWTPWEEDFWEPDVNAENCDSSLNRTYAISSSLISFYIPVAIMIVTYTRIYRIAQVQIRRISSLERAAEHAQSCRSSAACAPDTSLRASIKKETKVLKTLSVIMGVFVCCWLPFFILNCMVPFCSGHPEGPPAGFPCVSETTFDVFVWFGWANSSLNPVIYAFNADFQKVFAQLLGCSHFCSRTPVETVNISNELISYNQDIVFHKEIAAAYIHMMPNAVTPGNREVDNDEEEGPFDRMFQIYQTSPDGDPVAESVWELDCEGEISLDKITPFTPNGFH

For `O=c1cc(O)cc2oc(-c3ccc(O)c(-c4c(O)cc(O)c5c(=O)cc(-c6ccc(O)cc6)oc45)c3)cc(O)c1-2`, the Ki (in experiment [1]; at Histamine H1 receptor; in experiment [2]; in experiment [3]; in experiment [4]; at D(1B) dopamine receptor) was greater than 10 µM in each case. In addition, the inhibitory constant (Ki) (in experiment [5]; in experiment [6]; in [7]; at D(1A) dopamine receptor; in [8]; in experiment [9]) was greater than 10 µM in each case.
`CC(C)=CCC[C@]1(C)[C@@H](CC=C(C)C)C[C@]2(CC=C(C)C)C(=O)C(CC=C(C)C)C(=O)[C@]1(C(=O)C(C)C)C2=O` (some centres not stated): the inhibition constant Ki (in experiment [1]; at Histamine H1 receptor; in experiment [2]; in experiment [3]; in experiment [4]; at D(1B) dopamine receptor) was greater than 10 µM each time. In addition, the Ki is greater than 10 µM in experiment [5]; greater than 10 µM in [6]; greater than 10 µM in experiment [7]; 0.596 µM at D(1A) dopamine receptor; greater than 10 µM in experiment [8]; greater than 10 µM in experiment [9].
On to `C[C@@H]1O[C@@H](Oc2c(-c3ccc(O)c(O)c3)oc3cc(O)cc(=O)c-3c2O)[C@H](O)[C@H](O)[C@H]1O`, for which the inhibitory constant (Ki) (in [1]; on Histamine H1 receptor; in experiment [2]; in [3]; in experiment [4]; on D(1B) dopamine receptor) was greater than 10 µM each time. Also, the inhibitory constant (Ki) (in [5]; in experiment [6]; in experiment [7]; at D(1A) dopamine receptor; in experiment [8]; in [9]) was greater than 10 µM in each case.
Consider `O=c1c(O)c(-c2ccc(O)c(O)c2)oc2cc(O)cc(O)c12` [2-(3,4-dihydroxyphenyl)-3,5,7-trihydroxy-chromone;hydrate], for which the Ki (in [1]; at Histamine H1 receptor; in experiment [2]; in experiment [3]; in experiment [4]; at D(1B) dopamine receptor) was greater than 10 µM in each case. Further, the inhibitory constant (Ki) (in experiment [5]; in experiment [6]; in [7]; at D(1A) dopamine receptor; in [8]; in experiment [9]) was greater than 10 µM in each case.
For `C[C@@H]1O[C@@H](OC[C@H]2O[C@@H](Oc3c(-c4ccc(O)c(O)c4)oc4cc(O)cc(O)c4c3=O)[C@H](O)[C@@H](O)[C@@H]2O)[C@H](O)[C@H](O)[C@H]1O` [3-Rhamnoglucosylquercetin], the inhibition constant Ki (in [1]; at Histamine H1 receptor; in experiment [2]; in experiment [3]; in experiment [4]; on D(1B) dopamine receptor) was greater than 10 µM throughout. The inhibition constant Ki (in experiment [5]; in experiment [6]; in experiment [7]; on D(1A) dopamine receptor; in experiment [8]; in [9]) was greater than 10 µM throughout.
For `O=c1cc(O)cc2oc(-c3ccc(O)c(O)c3)c(OC3OC(CO)C(O)C(O)C3O)c(O)c1-2` (configuration not stated) [NSC_5318390], the Ki (in [1]; on Histamine H1 receptor; in experiment [2]; in [3]; in experiment [4]; at D(1B) dopamine receptor) was greater than 10 µM each time. The Ki (in experiment [5]; in experiment [6]; in experiment [7]; at D(1A) dopamine receptor; in [8]; in experiment [9]) was greater than 10 µM throughout.

One may read the Ki as a measure of affinity in units of concentration, obtained from inhibition or displacement. A high value points to lower affinity.

For the origin of these results see BindingDB's records for doi:10.1007/s00213-002-1073-7 (WestfÄLische Wilhelms-Universit&Auml, 2002).
